What was measured:
neuroblastoma SH-SY5Y = assay: Safety, MTT test in SH-SY5Y; assay type: cell-based; settings: 48 hours
Procedure: (§1) In order to test the safety of the compounds, both normal human cells were used: keratinocytes (HaCaT), fibroblasts (BJ), primary melanocytes that occur in the skin, as well as human cancer cells: the hepatocarcinoma line HepG2 and the neuroblastoma line SH-SY5Y, which are considered a model for the assessment of hepatocytotoxicity and neurocytotoxicity. The concentrations of the tested compounds in the range of 250-100 µM were used in the studies. The cell lines used in the research were purchased from the American Type Culture Collection (ATCC) and were cultured in media recommended by the manufacturer with the addition of FBS and antibiotics in an incubator ensuring appropriate culture conditions, i.e. humidity, temperature and CO2 concentration. Cells were seeded into multiwell plates and incubated with the test compounds for 48 hours. After this time, MTT and LDH tests were performed to assess cell viability. The MTT test is based on the ability to transform the substrate: [3-(4,5-dimethyl-2-thiazolyl)-2,5-diphenyl-2H-tetrazolium bromide into a colored product only by living cells. The absorbance at 570 nm, which corresponds to the absorption maximum for the product, is directly proportional to cell viability. The LDH test is based on testing the activity of the enzyme lactate dehydrogenase in the culture medium, which is released from cells as a result of damage to the cell membrane, e.g. as a result of cell death. Triton X-100 was used as a positive control in the test. The determination is colorimetric, the substrate is transformed by the released enzyme into a colored product, an increase in absorbance indicates a larger amount of the released enzyme, and thus confirms greater damage to cell membranes. Tables 7 and 8 present the results obtained, which correspond to the viability of cells incubated with the compounds in relation to the viability of cells constituting a control sample, i.e. incubated with the solvent (DMSO) at the same concentration as in the case of the groups tested in the MTT test or in relation to the results obtained for the Triton X-100 positive control in the LDH test. They indicate that the compounds are safe at the concentrations tested. Table 7. Viability of tested normal human cell lines: keratinocytes (HaCaT), fibroblasts (BJ) and primary melanocytes after incubation with the tested compounds - determination in the MTT test (% of solvent control ± SD) and LDH (percentage of positive control - Triton X-100.

Fibroblasts (BJ) = assay: Safety, MTT test in fibroblasts; assay type: cell-based; settings: 48 hours
Procedure: as §1

Hepatocarcinoma HepG2 = assay: Safety, LDH test in HepG2; assay type: cell-based; settings: 48 hours, positive control Triton X-100
Procedure: as §1

Keratinocytes (HaCaT) [1] = assay: Safety, MTT test in keratinocytes; assay type: cell-based; settings: 48 hours
Procedure: as §1

Keratinocytes (HaCaT) [2] = assay: Safety, LDH test in keratinocytes; assay type: cell-based; settings: 48 hours, positive control Triton X-100
Procedure: as §1

[3] = tested on: Chinese hamster ovary cell line (CHO-K1); assay: Cytotoxicity in CHO-K1 cells (MTT) before the micronucleus test; assay type: cell-based; settings: 24 hours
Procedure: The assay was performed using a Chinese hamster ovary cell line (CHO-K1) purchased from the American Type Culture Collection (ATCC). The cells were cultured in F-12K medium with the addition of 10% fetal bovine serum (FBS) and antibiotics (streptomycin/penicillin) in an incubator at 37 °C and 5% CO2 concentration). Before the actual micronucleus test, a cytotoxicity assessment was performed to ensure that the actual test was performed only at safe concentrations. For this purpose, cells were transferred to 96-well plates and incubated with the tested compounds for 24 hours. After this time, the MTT test was performed and cell viability was assessed in comparison to the control group (cells cultured with DMSO at the same concentration as in the case of the tested samples).

S. typhimurium TA100 = assay: Ames microplate test, TA100; assay type: cell-based, Salmonella typhimurium; settings: without S9;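 note: reference level is the mean solvent-control yellow wells plus SD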
Procedure: Bacteria were grown overnight in growth medium.
Table 9. Ames microplate test results.

[4] = tested on: Chinese hamster ovary cell line (CHO-K1); assay: Genotoxicity in the micronucleus test in CHO-K1 cells; assay type: cell-based
E. coli WP2 = assay: Ames microplate test, E. coli WP2; settings: without S9;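 note: bacteria treated 90 min at 37 °C in 24-well plates, then indicator medium dispensed to 384-well plates and incubated 48 h before yellow-well counting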

## O=C(/C=C/c1ccc(Cl)cc1)NCCCO [H-330/21, (2E)-3-(4-chlorophenyl)-N-(3-hydroxypropyl)prop-2-enamide]
Neuroblastoma SH-SY5Y; 100 µM
  Neuroblastoma SH-SYSY MTT: 99.79±5.34 % of solvent control
Neuroblastoma SH-SY5Y; 150 µM
  Neuroblastoma SH-SYSY MTT: 99.86±3.76 % of solvent control
Neuroblastoma SH-SY5Y; 200 µM
  Neuroblastoma SH-SYSY MTT: 99.79±3.97 % of solvent control
Neuroblastoma SH-SY5Y; 250 µM
  Neuroblastoma SH-SYSY MTT: 99.11±3.66 % of solvent control
Fibroblasts (BJ); 100 µM
  Fibroblasts (BJ) MTT: 100.54±5.01 % of solvent control
Fibroblasts (BJ); 150 µM
  Fibroblasts (BJ) MTT: 94.85±3.51 % of solvent control
Fibroblasts (BJ); 200 µM
  Fibroblasts (BJ) MTT: 85.52±3.08 % of solvent control
Fibroblasts (BJ); 250 µM
  Fibroblasts (BJ) MTT: 76.51±1.80 % of solvent control
Hepatocarcinoma HepG2; 100 µM
  Hepatocarcinoma HepG2 LDH: 5.38 percentage of positive control
Hepatocarcinoma HepG2; 150 µM
  Hepatocarcinoma HepG2 LDH: 4.90 percentage of positive control
Hepatocarcinoma HepG2; 200 µM
  Hepatocarcinoma HepG2 LDH: 12.16 percentage of positive control
Hepatocarcinoma HepG2; 250 µM
  Hepatocarcinoma HepG2 LDH: 19.02 percentage of positive control
Keratinocytes (HaCaT) [1]; 100 µM
  Keratinocytes (HaCaT) MTT: 102.03±1.45 % of solvent control
Keratinocytes (HaCaT) [1]; 150 µM
  Keratinocytes (HaCaT) MTT: 101.42±2.04 % of solvent control
Keratinocytes (HaCaT) [1]; 200 µM
  Keratinocytes (HaCaT) MTT: 97.07±2.81 % of solvent control
Keratinocytes (HaCaT) [1]; 250 µM
  Keratinocytes (HaCaT) MTT: 94.89±1.06 % of solvent control
Keratinocytes (HaCaT) [2]; 100 µM
  Keratinocytes (HaCaT) LDH: 3.66 percentage of positive control
Keratinocytes (HaCaT) [2]; 150 µM
  Keratinocytes (HaCaT) LDH: 5.33 percentage of positive control
Keratinocytes (HaCaT) [2]; 200 µM
  Keratinocytes (HaCaT) LDH: 17.03 percentage of positive control
Keratinocytes (HaCaT) [2]; 250 µM
  Keratinocytes (HaCaT) LDH: 24.24 percentage of positive control

## Cc1ccc(/C=C/C(=O)NCCCCCO)cc1 [H-415/21, (2E)-N-(5-hydroxypentyl)-3-(4-methylphenyl)prop-2-enamide]
Neuroblastoma SH-SY5Y; 100 µM
  Neuroblastoma SH-SYSY MTT: 100.68±4.63 % of solvent control
Neuroblastoma SH-SY5Y; 150 µM
  Neuroblastoma SH-SYSY MTT: 99.32±2.96 % of solvent control
Neuroblastoma SH-SY5Y; 200 µM
  Neuroblastoma SH-SYSY MTT: 100.27±3.50 % of solvent control
Neuroblastoma SH-SY5Y; 250 µM
  Neuroblastoma SH-SYSY MTT: 101.71±2.38 % of solvent control
[3]; 100 µM
  % Viability [mean]: 102.2%
[3]; 150 µM
  % Viability [mean]: 102.8%
[3]; 200 µM
  % Viability [mean]: 87.2%
Fibroblasts (BJ); 100 µM
  Fibroblasts (BJ) MTT: 102.12±2.71 % of solvent control
Fibroblasts (BJ); 150 µM
  Fibroblasts (BJ) MTT: 101.92±2.88 % of solvent control
Fibroblasts (BJ); 200 µM
  Fibroblasts (BJ) MTT: 96.13±3.64 % of solvent control
Fibroblasts (BJ); 250 µM
  Fibroblasts (BJ) MTT: 92.86±4.30 % of solvent control
Hepatocarcinoma HepG2; 100 µM
  Hepatocarcinoma HepG2 LDH: 3.90 percentage of positive control
Hepatocarcinoma HepG2; 150 µM
  Hepatocarcinoma HepG2 LDH: 7.24 percentage of positive control
Hepatocarcinoma HepG2; 200 µM
  Hepatocarcinoma HepG2 LDH: 8.92 percentage of positive control
Hepatocarcinoma HepG2; 250 µM
  Hepatocarcinoma HepG2 LDH: 15.47 percentage of positive control
Keratinocytes (HaCaT) [1]; 100 µM
  Keratinocytes (HaCaT) MTT: 101.11±2.03 % of solvent control
Keratinocytes (HaCaT) [1]; 150 µM
  Keratinocytes (HaCaT) MTT: 101.78±2.32 % of solvent control
Keratinocytes (HaCaT) [1]; 200 µM
  Keratinocytes (HaCaT) MTT: 100.88±1.40 % of solvent control
Keratinocytes (HaCaT) [1]; 250 µM
  Keratinocytes (HaCaT) MTT: 88.54±3.74 % of solvent control
S. typhimurium TA100; 0.5 mM
  Increase in the number of yellow wells compared to the reference level: 0.92
S. typhimurium TA100; 1.0 mM
  Increase in the number of yellow wells compared to the reference level: 0.58
S. typhimurium TA100; 2.0 mM
  Increase in the number of yellow wells compared to the reference level: 0.75
[4]; 100 µM
  DB (dicentric bridges in 1000 binucleate cells): 1.5 ± 0.7
  MN (number of micronuclei in 1000 binucleate cells): 12.5 ± 0.7
  NB (nuclear buds in 1000 binucleate cells): 5.0 ± 1.4
  NDI (nuclear division index): 1.54
[4]; 150 µM
  DB (dicentric bridges in 1000 binucleate cells): 3.5 ± 2.1
  MN (number of micronuclei in 1000 binucleate cells): 12.0 ± 2.8
  NB (nuclear buds in 1000 binucleate cells): 5.5 ± 2.1
  NDI (nuclear division index): 1.50
[4]; 200 µM
  DB (dicentric bridges in 1000 binucleate cells): 2.5 ± 0.7
  MN (number of micronuclei in 1000 binucleate cells): 11.5 ± 3.5
  NB (nuclear buds in 1000 binucleate cells): 6.0 ± 1.4
  NDI (nuclear division index): 1.52
Keratinocytes (HaCaT) [2]; 100 µM
  Keratinocytes (HaCaT) LDH: 2.95 percentage of positive control
Keratinocytes (HaCaT) [2]; 150 µM
  Keratinocytes (HaCaT) LDH: 6.70 percentage of positive control
Keratinocytes (HaCaT) [2]; 200 µM
  Keratinocytes (HaCaT) LDH: 10.18 percentage of positive control
Keratinocytes (HaCaT) [2]; 250 µM
  Keratinocytes (HaCaT) LDH: 18.19 percentage of positive control
E. coli WP2; 0.5 mM
  Increase in the number of yellow wells compared to the reference level: 0.64
E. coli WP2; 1.0 mM
  Increase in the number of yellow wells compared to the reference level: 0.40
E. coli WP2; 2.0 mM
  Increase in the number of yellow wells compared to the reference level: 0.95

## O=C(/C=C/c1ccc(Cl)cc1)NCCO [H-427/21, (2E)-3-(4-chlorophenyl)-N-(2-hydroxyethyl)prop-2-enamide]
Neuroblastoma SH-SY5Y; 100 µM
  Neuroblastoma SH-SYSY MTT: 100.48±3.67 % of solvent control
Neuroblastoma SH-SY5Y; 150 µM
  Neuroblastoma SH-SYSY MTT: 100.96±2.72 % of solvent control
Neuroblastoma SH-SY5Y; 200 µM
  Neuroblastoma SH-SYSY MTT: 101.30±2.94 % of solvent control
Neuroblastoma SH-SY5Y; 250 µM
  Neuroblastoma SH-SYSY MTT: 102.60±9.66 % of solvent control
Fibroblasts (BJ); 100 µM
  Fibroblasts (BJ) MTT: 101.82±3.99 % of solvent control
Fibroblasts (BJ); 150 µM
  Fibroblasts (BJ) MTT: 100.76±3.34 % of solvent control
Fibroblasts (BJ); 200 µM
  Fibroblasts (BJ) MTT: 100.37±3.92 % of solvent control
Fibroblasts (BJ); 250 µM
  Fibroblasts (BJ) MTT: 98.13±2.81 % of solvent control
Hepatocarcinoma HepG2; 100 µM
  Hepatocarcinoma HepG2 LDH: 3.09 percentage of positive control
Hepatocarcinoma HepG2; 150 µM
  Hepatocarcinoma HepG2 LDH: 4.45 percentage of positive control
Hepatocarcinoma HepG2; 200 µM
  Hepatocarcinoma HepG2 LDH: 5.98 percentage of positive control
Hepatocarcinoma HepG2; 250 µM
  Hepatocarcinoma HepG2 LDH: 13.51 percentage of positive control
Keratinocytes (HaCaT) [1]; 100 µM
  Keratinocytes (HaCaT) MTT: 100.47±3.65 % of solvent control
Keratinocytes (HaCaT) [1]; 150 µM
  Keratinocytes (HaCaT) MTT: 98.15±2.63 % of solvent control
Keratinocytes (HaCaT) [1]; 200 µM
  Keratinocytes (HaCaT) MTT: 99.24±3.00 % of solvent control
Keratinocytes (HaCaT) [1]; 250 µM
  Keratinocytes (HaCaT) MTT: 89.94±4.66 % of solvent control
Keratinocytes (HaCaT) [2]; 100 µM
  Keratinocytes (HaCaT) LDH: 2.76 percentage of positive control
Keratinocytes (HaCaT) [2]; 150 µM
  Keratinocytes (HaCaT) LDH: 3.69 percentage of positive control
Keratinocytes (HaCaT) [2]; 200 µM
  Keratinocytes (HaCaT) LDH: 6.50 percentage of positive control
Keratinocytes (HaCaT) [2]; 250 µM
  Keratinocytes (HaCaT) LDH: 17.79 percentage of positive control
